In publication PMC8622623, “Histamine H3 Receptor Ligands—KSK-59 and KSK-73—Reduce Body Weight Gain in a Rat Model of Excessive Eating” (Pharmaceuticals, 2021):
“Also recorded” adds a separate entry of the source.

How the values were obtained:
[1] = system: non-obese rats fed palatable diet; experiment: Model of excessive eating: body weight, calorie intake, fat pads; format: in vivo, female Wistar rats; settings: for body weight gain: i.p. daily 28 days, vs palatable diet + vehicle; for caloric intake over the 28 days: i.p., KSK compounds 10 mg/kg b.w. or bupropion/naltrexone
Method: Female Wistar rats were housed in pairs. […] The water was available ad libitum. Palatable control group (palatable diet + vehicle) received vehicle (1% Tween 80, i.p.), while palatable test groups (palatable diet + compound) were injected i.p. tested compounds at the dose of 10 or 1 mg/kg b.w./day suspended in 1% Tween 80 or the reference compound bupropion/naltrexon. The combination of bupropion at a dose of 20 mg/kg b.w./day and naltrexone at a dose of 1 mg/kg b.w./day was also suspended in 1% Tween 80 and administered i.p. Weight was evaluated daily. Calorie intake was evaluated ones per week. On the 31st day, 20 min after i.p. administration of heparin (5000 units/rat) and thiopental (70 mg/kg b.w.), animals were sacrificed and peritoneal fat pads were collected (Figure 11).
Palatable diet contained: 100 g peanuts—612 kcal; 100 mL condensed milk—131 kcal; 100 g milk chocolate—529 kcal; 100 g cheese—325 kcal. Standard diet contained 100 g feed—280 kcal.

[2] = system: female Wistar rats; experiment: Visceral illness via kaolin intake (pica behavior); format: in vivo; settings: for kaolin clay intake: single i.p. 10 mg/kg b.w.; for kaolin clay intake / water intake (pica model): vs control group that received i.p. CuSO4; for kaolin intake: KSK compounds 10 mg/kg or bupropion/naltrexone, vs vehicle control and CuSO4 control
Method: The method was based on the works by Takeda et al. and Yamamoto et al. with minor modification. The experiment lasted for five days. In addition to free access to feed, animals had also free access to a white kaolin. For the first few days, the animals were accustomed to the presence of kaolin in their cages. […] Moreover, animals were weighed before the compounds administration and 24 h after.

[3] = system: non-obese rats fed palatable diet; experiment: Intraperitoneal glucose tolerance test after 28 administrations; format: in vivo, female Wistar rats; settings: for blood glucose levels at 30 or/and 60 min after glucose load: KSK compounds 10 mg/kg b.w. or bupropion/naltrexone, glucose 1 g/kg i.p., vs control fed palatable feed; for AUC of IPGTT: vs control rats fed high-calorie feed
Method: The test was performed on the 29th day of the experiment. After twenty-eight administrations of the test compounds, food was discontinued for 20 h and then glucose tolerance was tested. Glucose (1 g/kg b.w.) was administrated i.p.. […] The area under the curve (AUC) was calculated using the trapezoidal rule.

[4] = system: non-obese rats fed palatable diet; experiment: Plasma lipids, hormones, corticosterone, CRP and IL-6 at end of chronic experiment; format: in vivo, female Wistar rats; settings: for plasma triglyceride levels: day 31, palatable feed + treatment, compared to rats fed standard feed
Method: On the 31st day of the experiment, 20 min after i.p. administration of heparin (5000 units/rat) and thiopental (70 mg/kg b.w.), blood was collected from the left carotid artery and then centrifuged at 600× g (15 min, 4 °C) in order to obtain the plasma. To determine total cholesterol, HDL-cholesterol, LDL-cholesterol or triglyceride levels in plasma, standard enzymatic and spectrophotometric tests (Biomaxima S.A. Lublin, Poland) were used. The ELISA Kit (Cayman Chemical, USA) assay was used to determine corticosterone levels in plasma. To determine IL-6, ghrelin, adiponectin, leptin and C-reactive protein levels in plasma, standard ELISA Kit (Bioassay Technology Laboratory, Shanghai, China) was used.

[5] = target: T1, H3 histamine receptor (Homo sapiens, UniProt Q9Y5N1); experiment: Aequoscreen intrinsic activity assay (antagonist dose-response); format: cell-based
T1 construct: host or cells: recombinant frozen ready-to-use cells
Method: Intrinsic activity studies were performed by two methods, Aequoscreen and Lance cAMP assays according to the manufacturer of the ready to use cells with stable expression of the H3 histamine receptor (Perkin Elmer, Waltham, MA, USA).
The Aequoscreen technology uses the recombinant cell lines with stable co-expression of apoaequorin and a GPCR as a system to detect activation of the receptor, following addition of an agonist, via the measurement of light emission. For measurement cells (frozen, ready to use) were thawed and resuspended in 10 mL of an assay buffer containing 5 μM of coelenterazine h. Then cells suspension was placed in a 10 mL Falcon tube, fixed onto a rotating wheel and incubated overnight at RT° in the dark. Cells were diluted with assay buffer to 5000 cells/20 µL. Agonistic ligands 2× (50 μL/well), diluted in assay buffer, were prepared in 1/2 area white polystyrene plates, and the 50 μL of cell suspension was dispensed on the ligands using the injector. The light emission was recorded for 20 s. Cells were incubated with antagonist for 15 min at RT°. Then 50 µL of agonist (3 × EC80 final concentration) was injected onto the mixture of cells and antagonist and the light emission was recorded for 20 s.

[6] = palatable feed, KSK compounds 10 mg/kg b.w. or bupropion/naltrexone combination
[7] = palatable feed, vs palatable feed + vehicle

T1 sequence (Q9Y5N1 whole entry): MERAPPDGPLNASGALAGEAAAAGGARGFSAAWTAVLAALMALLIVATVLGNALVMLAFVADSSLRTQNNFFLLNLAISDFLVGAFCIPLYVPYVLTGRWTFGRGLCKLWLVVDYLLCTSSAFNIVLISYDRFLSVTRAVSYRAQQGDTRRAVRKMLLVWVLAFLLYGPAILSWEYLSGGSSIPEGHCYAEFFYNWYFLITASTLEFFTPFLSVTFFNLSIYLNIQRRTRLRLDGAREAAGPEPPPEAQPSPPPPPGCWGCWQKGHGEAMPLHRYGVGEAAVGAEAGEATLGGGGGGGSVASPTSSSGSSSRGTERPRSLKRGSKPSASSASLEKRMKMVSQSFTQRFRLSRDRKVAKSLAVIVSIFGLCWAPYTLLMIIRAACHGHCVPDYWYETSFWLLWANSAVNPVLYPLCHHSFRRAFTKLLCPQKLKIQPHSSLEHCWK

Row | SMILES | body weight gain ([1]; palatable feed, 1 mg/kg b.w.) | body weight gain [1, 6] | caloric intake over the 28 days [1, 7] | kaolin clay intake [2] | water intake (pica model) ([2]; single i.p., 24 h) | kaolin intake ([2]; single i.p., 24 h) | blood glucose levels at 30 or/and 60 min after glucose load [3] | AUC of IPGTT [3] | plasma triglyceride levels [4] | plasma adiponectin level ([4]; day 31, vs control rats fed palatable feed) | IC50 [5] | fat pads in the peritoneal cavity ([1]; end of experiment, vs palatable feed + vehicle) | body weight after the first administration ([1]; palatable feed, i.p. 10 mg/kg b.w., 10 mg/kg) | calorie intake (pica model) ([2]; single i.p., 24 h, vs vehicle control)
1 | CC(=O)c1ccc(OCCCCCCN2CCN(c3ccncc3)CC2)cc1.O=C(O)C(=O)O [KSK-59, 1-(4-((6-(4-(pyridin-4-yl)piperazin-1-yl)hexyl)oxy)phenyl)ethan-1-one oxalate] | did not significantly affect weight gain | gained less weight than the control group fed palatable diet | comparable to the amount consumed by the control rats | consumed significantly less kaolin clay | lower water intake | did not consume more kaolin | significantly lower | statistically significantly decreased | statistically significantly higher | Significantly lower level of adiponectin | 3.31 ± 3.2 nM | – | – | –
2 | CC(=O)c1ccc(OCCCCCCCCN2CCN(c3ccncc3)CC2)cc1.O=C(O)C(=O)O [KSK-73, 1-(4-((8-(4-(pyridin-4-yl)piperazin-1-yl)octyl)oxy)phenyl)ethan-1-one oxalate] | caused significantly greater weight gain | gained less weight than the control group fed palatable diet | significantly reduced animals caloric intake | consumed significantly less kaolin clay | lower water intake | did not consume more kaolin | significantly lower | statistically significantly decreased | comparable to the ones observed in rats from the control group fed standard feed | – | 20.6 ± 4.5 nM | Significantly fewer fat pads | slowed down the rats’ body weight gain already after the first administration; also recorded: weight loss after the first administration | consumed fewer calories
